Square brackets hold non-standard residues; d marks the D form.
Experiment: Proton transport (collapse of pH gradient) in vesicles with entrapped 5(6)-carboxyfluorescein
Format: biochemical
Details: vesicles pH 6.5 inside, pH 5.5 outside
Source text: The proton efflux is expressed in terms of the fractional change in the fluorescence intensity of vesicle entrapped 5(6)-carboxyfluorescein as a function of time (sampling time was at 0.3 seconds interval). Equal molar amounts of channel forming compounds were used in each experiment to allow direct comparisons of channel-mediated proton transport activity. The amount of added channel forming compounds in each experiment ranged from of 2 to 20 nmoles corresponding to approximately 150 channels per liposome for the lowest concentrations to 1100 channels per liposome for the highest amount of added compounds.
Formation of transmembrane channels was also inferred from its highly efficient proton transport activity. Vesicles were prepared having pH 6.5 inside and pH 5.5 in the outside bulk solution. The collapse of the imposed pH gradient in these vesicles, upon formation of the putative transmembrane channel structure, was studied by monitoring the fluorescence intensity of an entrapped pH-sensitive dye. (V.E. Carmichael et al, in J.Am. Chem. Soc. (1989), vol. 111, pages 767-769). […] Unilamellar vesicles were prepared by the reverse-phase evaporation using DPPC, OPPC, cholestrol in the ratio of 1:1:2 in a solution containing 5(6)-carboxyfluorescein (20 mM in phosphate/saline buffer: 137 mM NaCl, 2.6 mM KCl, 6.4 mM Na2HPO4, 1.4 mM KH2PO4, pH 6.5) according to the method of F. Szoka et al. in Proc. Natl. Acad. Sci. USA (1978), vol. 75, pages 4194-4198. […] Vesicles formed in this way are approximately 150 nanometer in diameter as determined by electron microscopy. […] To the cuvett, through an injector port, […] of the channel forming compounds in DMSO was added with continuous fluorescence monitoring at 520 nm (excitation at 470 nm). The observed data were then normalized for comparison into the fractional change in fluorescence ((I0−It)/(I0−I∞)) (V. E. Carmichael et al, in J.Am. Chem. Soc. (1989), vol. 111, pages 767-769)). […]

cyclo[-(Trp-D-Leu)3-Gln-D-Leu-] (cyclo(W[dL]W[dL]W[dL]Q[dL]); SMILES CC(C)C[C@H]1NC(=O)[C@H](CCC(N)=O)NC(=O)[C@@H](CC(C)C)NC(=O)[C@H](Cc2c[nH]c3ccccc23)NC(=O)[C@@H](CC(C)C)NC(=O)[C@H](Cc2c[nH]c3ccccc23)NC(=O)[C@@H](CC(C)C)NC(=O)[C@H](Cc2c[nH]c3ccccc23)NC1=O) [eight residue ion channel forming cyclic peptide, approximately 7.5 Å pore]
collapse of the imposed pH gradient upon addition of peptide: rapid collapse of the pH gradient
